Assay results from publication PMC9562916, “Investigation of the Phenolic Component Bioavailability Using the In Vitro Digestion/Caco-2 Cell Model, as well as the Antioxidant Activity in Chinese Red Wine” (Foods, 2022).
Where two headings read alike, the source gives them in different places. Marks after values point to notes of the source that are not given here.

Legend:
Caco-2 cell monolayer = experiment: Caco-2 transepithelial transport assay of digested red wine; format: in vitro ADME, human
Procedure: Caco-2 cells were inoculated following the method of Hubatsch et al. […] Briefly, a 5% v/v of CO2 incubator at 37 °C was used to house the cells. […] Caco-2 cells were sub-cultured when they reached 80-90% of the adherent growth by treating them with a 0.05% v/v of trypsin-EDTA solution. The culture between passages 35 and 40 was used for the following experiment. Transport experiments were performed according to the method of Wu et al. with slight modifications. First, 1.0 × 10^5 Caco-2 cells were inoculated onto 12 mm transparent cell culture plates (Transwell). Media were carefully injected into the apical (0.5 mL) and basolateral (1.5 mL) sides of the Transwell plates. The cell culture medium had to be replaced every other day until the cells formed a monolayer. The integrity and transport ability of the Caco-2 cell monolayer were evaluated by measuring the trans-epithelial electrical resistance (TEER) with a MilliCell voltammeter (Millicell ERS-2, Merck Millipore, Billerica, MA, USA). […] When the cell activity exceeded 0.9, a transport experiment was conducted. The apical side was injected with a digested red wine sample (0.5 mL) and was thoroughly mixed with […] Balanced Salt Solution (HBSS) buffer solution. […] The cells were then cultured in a 37 °C, 5% CO2 incubator. Then, 0.25 mL samples were separately taken from the basolateral side of the monolayer. An equal volume of HBSS buffer was then added every half hour from the beginning of the culture until the end of the culture at 6 h. The collected samples were subsequently filtered and placed in the sample bottle for further HPLC analysis. This experiment was repeated several times to collect enough samples for the next antioxidant test. […] The Agilent 1100 series HPLC instrument was used; it was equipped with a degasser, quaternary pump solvent delivery, a DAD system, and a single quadrupole mass detector coupled with an electrospray ionization LC-MS interface. […] The column temperature was kept at 30 °C, the injection volume was 10 μL, and the flow rate was 0.3 mL/min. The eluents were water and formic acid in a 99:1 (v/v) (A) ratio and 100% acetonitrile (B). The gradient elution procedure was as follows: (1) 3% B solvent at 0 min, (2) 3 to 16% B solvent at 10 min, (3) 16 to 20% B solvent at 30 min, and (4) 20% B solvent maintained until the procedure was completed. The MS configuration was as follows: ESI, negative ion mode, nebulizer pressure of 30 psi, a dry gas flow rate of 10 mL/min, dry gas temperature of 350 °C, and a scan rate of 100~1200 m/z. PCs were determined according to their retention times, UV/VIS spectra, and high-resolution MS spectra, in addition to a comparison with the standards. […] If a standard was unavailable, a structurally related compound was used. Putative annotations were made using spectral features and literature information on the chromatographic properties and mass spectra records from the metabolome database. A standard curve was drawn using methanol solutions with different concentrations as the standards. […] PCs All of the samples were determined in triplicate.

[1] = PC content of red wine before and after in vitro simulated gastrointestinal digestion (HPLC); format: in vitro ADME; conditions: for Increase in content after digestion: after digestion vs undigested
Procedure: The digestion procedure was carried out by adapting the method of Brodkorb et al. and Gómez et al.. […] One milliliter (50 units/mL) of porcine amylase was prepared in a 15 mM Na₃PO₄ buffer solution (pH adjusted to 6.8) containing 1.5 mM CaCl2, and it was added to the red wine solution. After 5 min, 4.5 mL of 0.12 M HCl was added to the mixture to adjust the pH to 2.4. One milliliter of porcine pepsin (0.02 mg/L) was dissolved in a 20 mM HCl solution. The mixture was then maintained at 37 °C for 120 min. The digestion mixture was then centrifuged at 8000× g for 15 min to obtain samples from the gastric digestion phase. […] The mixture was incubated at pH 6.5 at 37 °C for 3 h before being centrifuged. The extracts of the intestinal phase were the supernatants. The same operation was done three times, and each sample was stored in a refrigerator (−20 °C) immediately for further analysis.
The Pati method was adopted, with slight modifications, to measure the content of the PCs. The Agilent 1100 series HPLC instrument was used; it was equipped with a degasser, quaternary pump solvent delivery, a DAD system, and a single quadrupole mass detector coupled with an electrospray ionization LC–MS interface. Briefly, th samples were injected into a Zorbax SB C18 reversed-phase column (5 µm,150 × 2.1 mm, Agilent Technologies, Santa Clara, CA, USA) using an autosampler after filtering through 0.45 µm cellulose acetate syringe filters. The column temperature was kept at 30 °C, the injection volume was 10 µL, and the flow rate was 0.3 mL/min. The eluents were water and formic acid in a 99:1 (v/v) (A) ratio and 100% acetonitrile (B). […] The MS configuration was as follows: ESI, negative ion mode, nebulizer pressure of 30 psi, a dry gas flow rate of 10 mL/min, dry gas temperature of 350 °C, and a scan rate of 100~1200 m/z. PCs were determined according to their retention times, UV/VIS spectra, and high-resolution MS spectra, in addition to a comparison with the standards. […] Putative annotations were made using spectral features and literature information on the chromatographic properties and mass spectra records from the metabolome database. A standard curve was drawn using methanol solutions with different concentrations as the standards. The limits of detection and quantitation were calculated according to the signal-to-noise ratio (limit of detection: signal-to-noise ratio ≥ 3; limit of quantitation: signal-to-noise ratio ≥ 10). […] PCs All of the samples were determined in triplicate.

[2] = Cabernet red wine, digested sample, basolateral side of Caco-2 monolayer
[3] = Helanshan red wine, digested sample, basolateral side of Caco-2 monolayer
[4] = Tianzhu red wine, digested sample, basolateral side of Caco-2 monolayer
[5] = apical to basolateral, digested Cabernet red wine
[6] = apical to basolateral, digested Helanshan red wine
[7] = apical to basolateral, digested Tianzhu red wine
[8] = Cabernet red wine, after simulated gastrointestinal digestion
[9] = Helanshan red wine, after simulated gastrointestinal digestion
[10] = Tianzhu red wine, after simulated gastrointestinal digestion

Apparent Permeability Coefficients, Cabernet (Caco-2 cell monolayer; Caco-2)	Apparent Permeability Coefficients, Helanshan (Caco-2 cell monolayer; Caco-2)	Apparent Permeability Coefficients, Tianzhu (Caco-2 cell monolayer; Caco-2)	PC Contents, Cabernet, Transmembrane (Caco-2 cell monolayer; Caco-2)	PC Contents, Helanshan, Transmembrane (Caco-2 cell monolayer; Caco-2)	PC Contents, Tianzhu, Transmembrane (Caco-2 cell monolayer; Caco-2)	PC Contents, Cabernet, After Digestion [1]	PC Contents, Helanshan, After Digestion [1]	PC Contents, Tianzhu, After Digestion [1]	Compound	PC Contents, Cabernet, Transmembrane (Caco-2 cell monolayer; [2])	PC Contents, Helanshan, Transmembrane (Caco-2 cell monolayer; [3])	PC Contents, Tianzhu, Transmembrane (Caco-2 cell monolayer; [4])	Apparent Permeability Coefficients, Cabernet (Caco-2 cell monolayer; [5])	Apparent Permeability Coefficients, Helanshan (Caco-2 cell monolayer; [6])	Apparent Permeability Coefficients, Tianzhu (Caco-2 cell monolayer; [7])	PC Contents, Cabernet, After Digestion [1, 8]	PC Contents, Helanshan, After Digestion [1, 9]	PC Contents, Tianzhu, After Digestion [1, 10]	Increase in content after digestion ([1]; Helanshan red wine) [%]	Increase in content after digestion ([1]; Tianzhu red wine) [%]
1.76 ± 0.17 ^a ×10^−6 cm/s	1.83 ± 0.16 ^a ×10^−6 cm/s	1.79 ± 0.13 ^a ×10^−6 cm/s	0.84 ± 0.04 ^a mg/L	0.55 ± 0.03 ^a mg/L	5.70 ± 0.29 ^a mg/L	29.78 ± 1.28 ^b mg/L	18.76 ± 0.81 ^b mg/L	28.63 ± 0.86 ^b mg/L	COc1cc(-c2oc3cc(O)cc(O)c3c(=O)c2O[C@@H]2O[C@H](CO)[C@@H](O)[C@H](O)[C@H]2O)cc(O)c1O [Laricitrin-3-glc]	–	–	–	–	–	–	–	–	–	–	–
–	–	–	–	–	–	–	–	–	COc1cc(-c2oc3cc(O)cc(O)c3c(=O)c2O[C@@H]2O[C@H](CO)[C@@H](O)[C@H](O)[C@H]2O)ccc1O [Isorhamnetin-3-glc]	0.74 ± 0.03 ^a mg/L	0.69 ± 0.03 ^a mg/L	1.97 ± 0.07 ^a mg/L	4.29 ± 0.33 ^a ×10^−6 cm/s	4.39 ± 0.31 ^a ×10^−6 cm/s	4.35 ± 0.34 ^a ×10^−6 cm/s	10.82 ± 0.32 ^b mg/L	9.87 ± 0.47 ^b mg/L	9.88 ± 0.35 ^b mg/L	–	–
28.2 ± 4.11 ^a ×10^−6 cm/s	27.9 ± 3.64 ^a ×10^−6 cm/s	27.6 ± 3.89 ^a ×10^−6 cm/s	1.40 ± 0.07 ^a mg/L	0.81 ± 0.04 ^a mg/L	0.82 ± 0.03 ^a mg/L	3.11 ± 0.12 ^b mg/L	1.81 ± 0.10 ^c mg/L	4.11 ± 0.18 ^c mg/L	COc1cc(/C=C/C(=O)OC(C(=O)O)C(O)C(=O)O)ccc1O (stereo not shown) [Fertaric acid]	–	–	–	–	–	–	–	–	–	–	–
16.89 ± 2.96 ^a ×10^−6 cm/s	17.56 ± 3.32 ^a ×10^−6 cm/s	17.13 ± 3.01 ^a ×10^−6 cm/s	1.56 ± 0.07 ^a mg/L	1.40 ± 0.05 ^a mg/L	1.06 ± 0.04 ^a mg/L	5.79 ± 0.27 ^b mg/L	4.98 ± 0.19 ^b mg/L	5.33 ± 0.21 ^b mg/L	COc1cc(-c2[o+]c3cc(O)cc(O)c3cc2O[C@@H]2O[C@H](CO)[C@@H](O)[C@H](O)[C@H]2O)cc(O)c1O [Petunidin-3-glc]	–	–	–	–	–	–	–	–	–	–	–
–	–	–	–	–	–	–	–	–	OC[C@H]1O[C@@H](Oc2cc3c(O)cc(O)cc3[o+]c2-c2cc(O)c(O)c(O)c2)[C@H](O)[C@@H](O)[C@@H]1O [Delphinidin-3-glc, delphinidin-3-glucoside]	0.59 ± 0.02 ^a mg/L	0.53 ± 0.02 ^a mg/L	0.57 ± 0.02 ^a mg/L	12.38 ± 2.37 ^a ×10^−6 cm/s	12.59 ± 2.64 ^a ×10^−6 cm/s	12.45 ± 2.11 ^a ×10^−6 cm/s	2.96 ± 0.09 ^b mg/L	2.63 ± 0.10 ^c mg/L	2.87 ± 0.11 ^c mg/L	28.3	20.6
2.91 ± 0.21 ^a ×10^−6 cm/s	2.81 ± 0.29 ^a ×10^−6 cm/s	2.88 ± 0.23 ^a ×10^−6 cm/s	1.23 ± 0.04 ^a mg/L	0.91 ± 0.03 ^a mg/L	6.01 ± 0.22 ^a mg/L	26.34 ± 0.90 ^b mg/L	20.17 ± 1.01 ^b mg/L	30.19 ± 1.03 ^b mg/L	COc1cc(-c2oc3cc(O)cc(O)c3c(=O)c2O[C@@H]2O[C@H](CO)[C@@H](O)[C@H](O)[C@H]2O)cc(OC)c1O [Syringetin-3-glc]	–	–	–	–	–	–	–	–	–	–	–
–	–	–	–	–	–	–	–	–	O=c1c(O[C@@H]2O[C@H](CO)[C@@H](O)[C@H](O)[C@H]2O)c(-c2ccc(O)c(O)c2)oc2cc(O)cc(O)c12 [Quercetin-3-glc]	7.47 ± 0.23 ^a mg/L	5.10 ± 0.28 ^a mg/L	37.54 ± 1.95 ^a mg/L	2.31 ± 0.27 ^a ×10^−6 cm/s	2.19 ± 0.26 ^a ×10^−6 cm/s	2.23 ± 0.22 ^a ×10^−6 cm/s	202.22 ± 10.52 ^b mg/L	145.43 ± 5.38 ^b mg/L	188.45 ± 8.29 ^b mg/L	–	–
6.41 ± 1.05 ^a ×10^−6 cm/s	6.48 ± 0.98 ^a ×10^−6 cm/s	6.54 ± 0.86 ^a ×10^−6 cm/s	0.58 ± 0.03 ^a mg/L	0.62 ± 0.02 ^a mg/L	1.52 ± 0.08 ^a mg/L	5.64 ± 0.26 ^b mg/L	5.98 ± 0.27 ^b mg/L	7.64 ± 0.32 ^b mg/L	Procyanidin dimer	–	–	–	–	–	–	–	–	–	–	–
12.13 ± 1.19 ^a ×10^−6 cm/s	12.91 ± 1.32 ^a ×10^−6 cm/s	12.46 ± 1.42 ^a ×10^−6 cm/s	0.38 ± 0.02 ^a mg/L	0.61 ± 0.03 ^a mg/L	0.64 ± 0.03 ^a mg/L	1.96 ± 0.08 ^b mg/L	2.97 ± 0.15 ^b mg/L	–	O=C(/C=C/c1ccc(O)cc1)O[C@@H](C(=O)O)[C@@H](O)C(=O)O [Coutaric acid]	–	–	–	–	–	–	–	–	–	–	–
7.77 ± 1.14 ^a ×10^−6 cm/s	7.69 ± 1.23 ^a ×10^−6 cm/s	7.83 ± 1.17 ^a ×10^−6 cm/s	–	–	–	25.4 ± 0.86 ^b mg/L	15.42 ± 0.83 ^b mg/L	16.7 ± 0.75 ^b mg/L	O.Oc1cc(O)c2c(c1)O[C@H](c1ccc(O)c(O)c1)[C@@H](O)C2 [Catechin]	–	–	–	–	–	–	–	–	–	–	–
